Test [1] concerns the target Ustilago maydis acetyl CoA carboxylase (ACCase) (Ustilago maydis, UniProt A0A0D1DYD5). As to the kind of experiment: ACCase enzymatic assay (coupled PK/LDH, NADH OD340). To be noted: read-out: ACCase Inhibitory Activity IC50. The test is classed as biochemical. The procedure:
Ustilago maydis acetyl CoA carboxylase (ACCase) was cloned, expressed, and purified as described (Weatherly et al, Biochem. J., 2004) and the test compounds were tested in a 96-well plate format. Primary in vitro screening consisted of obtaining dose response data at 100, 33, 10, and 1 μM inhibitor. Actives in the primary screen were re-tested to establish IC50 values.
Direct detection of the conversion of acetyl CoA to malonyl CoA by ACCase was not feasible, but during this process ATP is converted to ADP which allowed for detection through a standard reaction coupling with ADP recycling to the oxidation of NADH. Thus, ACCase activity was measured via kinetic OD340 measurements of the conversion of NADH to NAD in a coupled reaction involving the conversion of phosphoenolpyruvate (PEP) to lactate.
The complete 200 ul reaction mixture contained 52.5 mM HEPES (pH8), 2.625 mM MgCl2, 1 mM ATP, 0.525 mM DTT, 11 mM NaHCO3, 1% DMSO with or without inhibitor, 1× pyruvate kinase/lactate dehydrogenase (PK/LDH), 0.3 mM NADH, 0.5 mM PEP, and 5 μg ACCase. The reactions were incubated at 30° C. for 10 minutes and then initiated by the addition of 0.33 mM acetyl CoA. The initiated reactions were read immediately via plate reader at OD340 and kinetic readings were acquired every 20 s for 15 minutes while keeping the temperature at 30° C.
A slope of the kinetic curve was determined by using the 2 to 7 minute data which was then calculated as percent inhibition relative to the no inhibitor control.
The primary screens were conducted in duplicate and the IC50's conducted in triplicate. Averages were reported along with standard deviation calculation to generate error bars.
Each plate contained its own controls and consisted of a DMSO only control, 5-fold titration series of soraphen from 2 μM to 3.2 nM, and an ADP coupled reaction control. […]
A slope of the kinetic curve was determined by using the 2 to 7 minute data which was then calculated as percent inhibition relative to the no inhibitor control. Those compounds which had no significant PK/LDH inhibition at or above the IC50 in the ACCase assay, were considered to be valid modulators of only ACCase.

Test [2] has as its system Collectotrichum graminicola. Briefly: Fungal growth inhibition assay, C. graminicola. The format is cell-based. To be noted: Colletotrichum graminicola, 48 h. How it is done:
(§1) Spores were isolated from previously sub-cultured plates of Botrytis cinerea, Phytophthora capsici, Fusarium moniliforme, Fusarium viguliforme, Collectotrichum graminicola, and Diplodia maydis. All spores were filtered and collected in a sterile glass bowl to isolate the spores from the mycelia. The isolation and sub-culture plate condition for each pathogen is described below.
Spore isolation for C. graminicola: A 1-2 week old oatmeal agar (pre-mix) plate was removed from 26° C. incubator with a light/dark 12 hour cycle and the mycelia were treated with 10-15 ml of filter sterilized distilled water. The mycelia were scraped to re-suspend the spores. The spores were then collected in a sterile filter bowl containing a piece of sterile cheesecloth and poured into a conical tube.
(§2) After spore isolation, pathogen spores were counted on a hemocytometer to calculate the spores/ml. In 17% V8 liquid media containing 3 g/L CaCO3, isolated spores were diluted to individual concentrations based on the growth curves at 48 hours of each pathogen. The spore concentrations for each pathogen were as follows: B. cinerea—10,000 sp/ml; P. capsici—300 sp/ml; F. monliforme—500 sp/ml; F. virguliforme—500 sp/ml; C. graminicola—3,000 sp/ml; and D. maydis—3,000 sp/ml.
(§3) Chemistry stocks were dissolved in DMSO at 2.5 mg/ml. Chemistry was diluted in a 96-well stock plate in five-fold dilutions to obtain a final concentration of 50, 10, and 2 ppm in vitro. The final concentration of the positive control after the five-fold dilutions was as follows: soraphen—0.5, 0.1, and 0.02 ppm. Negative controls on each plate included 2% DMSO, water containing spores and media, and a blank for background subtraction.
(§4) In a 96-well plate the spore solution, chemistries, and controls were combined to make the final solution concentrations mentioned above. Upon addition of the chemistry, an OD600 reading was done to assess chemical precipitation. The 96-well plates were incubated in plastic tubs containing wet paper towels under the following conditions, 25° C. in the dark for P. capsici and B. cinerea or 26° C. with light/dark cycle for C. graminicola, D. maydis, F. virguliforme, F. monliforme. Plate readings were repeated at 24 and 48 hrs. Visual ratings were performed at 24 and 48 hrs to check for precipitation and confirm efficacy. Visual and OD600 ratings of the chemistry at 48 hours were compared to the 2% DMSO control to determine the percent of pathogen growth inhibition.

Another test deals with Diplodia maydis. Briefly: Fungal growth inhibition assay, D. maydis. The format is cell-based. To be noted: 48 h. The procedure: as §1
Spore isolation for D. maydis: A 3-4 week old PDA (pre-mix) plate was removed from 26° C. incubator with a light/dark 12 hour cycle and the mycelia were treated with 6-7 ml of sterile distilled water, scraped into a sterile petri dish, and smashed to open the pycnidia. The spores were then collected in a sterile filter bowl containing a fluted piece of filter paper and poured into a conical tube.
as §2, §3, §4

In another test the test system is Saccharomyces cerevisiae. Briefly: Yeast growth inhibition assay. The format is cell-based. Conditions: read-out: S. cerevisiae % growth inhibition. How it is done: Yeast cells (Ade2 strain) were grown in liquid YPD (1% yeast extract, 2% peptone, 2% dextrose) for 16 hours at 30° C. from previously sub-cultured plates of Saccharomyces cerevisiae. The OD600 of the overnight culture was checked via spectrophotometer and diluted to a concentration of 2×10^4 cells/ml.
Chemistry stocks were dissolved in DMSO to a concentration of 10 mM. Chemistry stocks were further diluted in a 96-well stock plate to obtain final concentrations of […] in 1% DMSO. The final concentrations of the soraphen positive control were 400, 40, and 3.2 nM. The negative controls on each plate included a background subtraction control containing yeast and 1% DMSO (without chemistry) and a second contamination control containing YPD (with no yeast) and 1% DMSO (without chemistry).
98 μl liquid YPD was added to 2 μl diluted stock of DMSO per well and mixed thoroughly. After mixing, 100 μl of the diluted yeast solution was added to bring the final yeast concentration to 1×10^4 cells/ml or 2000 cells per well. An initial spectrophotometric reading at OD600 was conducted on the entire plate and served as the 0 hours time point used to subtract any background. […] […] […] All experiments were conducted in triplicate. Averages were reported along with standard deviation calculation to generate error bars. Each plate contained its own controls and consisted of inoculated+DMSO, non-inoculated+DMSO, and a titration series of soraphen at 400, 40, and 3.2 nM.

The values that follow come from patent US10995070B2, “Acetyl-CoA carboxylase modulators” (Monsanto Technology LLC, priority 2013, dated 2021).

Ustilago maydis acetyl CoA carboxylase (ACCase), sequence (A0A0D1DYD5 1-2185): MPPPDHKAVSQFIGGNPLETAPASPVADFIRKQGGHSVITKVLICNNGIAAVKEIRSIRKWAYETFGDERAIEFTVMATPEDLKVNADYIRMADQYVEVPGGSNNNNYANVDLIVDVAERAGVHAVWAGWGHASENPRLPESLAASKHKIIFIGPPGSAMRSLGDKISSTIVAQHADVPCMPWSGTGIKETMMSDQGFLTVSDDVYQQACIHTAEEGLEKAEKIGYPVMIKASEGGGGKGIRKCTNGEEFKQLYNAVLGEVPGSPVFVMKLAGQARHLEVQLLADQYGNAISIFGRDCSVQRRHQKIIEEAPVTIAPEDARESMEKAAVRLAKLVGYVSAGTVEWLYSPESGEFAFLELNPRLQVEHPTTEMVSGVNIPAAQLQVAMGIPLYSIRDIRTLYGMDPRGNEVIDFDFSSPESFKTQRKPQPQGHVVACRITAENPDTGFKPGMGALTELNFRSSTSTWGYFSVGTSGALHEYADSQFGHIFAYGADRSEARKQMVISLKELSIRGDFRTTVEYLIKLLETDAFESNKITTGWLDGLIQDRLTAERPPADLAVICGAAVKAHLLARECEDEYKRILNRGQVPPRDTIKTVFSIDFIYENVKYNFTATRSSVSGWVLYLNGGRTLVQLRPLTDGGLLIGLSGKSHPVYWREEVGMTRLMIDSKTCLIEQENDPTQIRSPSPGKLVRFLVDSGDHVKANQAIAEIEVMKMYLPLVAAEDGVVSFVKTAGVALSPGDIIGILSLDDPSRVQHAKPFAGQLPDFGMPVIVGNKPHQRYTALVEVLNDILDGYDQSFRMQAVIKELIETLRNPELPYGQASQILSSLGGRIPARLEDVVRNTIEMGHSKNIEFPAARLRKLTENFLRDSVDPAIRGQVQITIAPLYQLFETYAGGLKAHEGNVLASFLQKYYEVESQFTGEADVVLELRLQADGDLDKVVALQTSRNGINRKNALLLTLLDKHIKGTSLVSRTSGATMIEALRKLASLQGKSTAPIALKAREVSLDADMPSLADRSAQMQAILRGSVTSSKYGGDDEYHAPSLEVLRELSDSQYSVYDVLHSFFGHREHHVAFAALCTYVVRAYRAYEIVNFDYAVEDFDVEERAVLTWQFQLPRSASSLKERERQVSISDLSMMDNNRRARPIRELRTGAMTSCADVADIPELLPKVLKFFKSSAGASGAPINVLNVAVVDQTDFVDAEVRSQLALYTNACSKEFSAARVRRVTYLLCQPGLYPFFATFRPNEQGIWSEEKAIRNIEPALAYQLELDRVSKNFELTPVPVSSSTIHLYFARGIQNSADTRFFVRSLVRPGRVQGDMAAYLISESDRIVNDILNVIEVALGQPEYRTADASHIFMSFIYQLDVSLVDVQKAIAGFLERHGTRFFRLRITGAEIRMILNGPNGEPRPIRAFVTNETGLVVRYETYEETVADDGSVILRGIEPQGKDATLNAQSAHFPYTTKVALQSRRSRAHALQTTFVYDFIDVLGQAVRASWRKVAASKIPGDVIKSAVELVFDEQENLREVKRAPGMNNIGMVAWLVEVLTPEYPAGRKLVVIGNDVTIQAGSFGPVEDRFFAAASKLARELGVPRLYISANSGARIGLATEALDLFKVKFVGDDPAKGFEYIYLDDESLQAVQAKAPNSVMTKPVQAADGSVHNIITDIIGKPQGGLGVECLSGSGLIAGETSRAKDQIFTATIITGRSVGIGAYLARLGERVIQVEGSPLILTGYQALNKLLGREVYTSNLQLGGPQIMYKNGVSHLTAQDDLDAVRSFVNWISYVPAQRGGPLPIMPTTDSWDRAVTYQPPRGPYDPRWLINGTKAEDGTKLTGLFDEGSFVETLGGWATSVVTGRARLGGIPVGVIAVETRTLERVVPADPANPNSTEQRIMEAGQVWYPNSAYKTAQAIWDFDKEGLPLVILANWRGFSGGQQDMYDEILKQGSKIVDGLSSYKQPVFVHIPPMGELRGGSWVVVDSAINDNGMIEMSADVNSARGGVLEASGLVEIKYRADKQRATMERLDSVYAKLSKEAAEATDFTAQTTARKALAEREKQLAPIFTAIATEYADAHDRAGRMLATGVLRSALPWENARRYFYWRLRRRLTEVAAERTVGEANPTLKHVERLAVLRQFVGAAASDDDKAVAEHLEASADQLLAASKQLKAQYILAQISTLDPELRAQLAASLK

By IC50 is commonly meant the concentration at which inhibition is half-maximal. By inhibition is commonly meant the drop in the measured response relative to a control, in per cent. Regarding `O=C(O)Cc1ccc(-c2nc3ccccc3c(-c3ccccc3)c2Cl)s1` [Formula Ib-ii, 2-(5-(3-chloro-4-phenylquinolin-2-yl)thiophen-2-yl)acetic acid], the half-maximal inhibitory concentration (IC50) in test [1] was found to be 0.11 µM. In test [2], the inhibition at 2 ppm was determined as 0%, testing at 10 ppm gave an inhibition of 67% and testing at 50 ppm gave an inhibition of 78%. In the test on Diplodia maydis, this molecule yielded an inhibition at 2 ppm of 55% and an inhibition at 10 ppm of 70%. In the test with Saccharomyces cerevisiae, the inhibition at 3.7 µM was determined as 0%, the inhibition at 11.1 µM stood at 0%, the inhibition at 33.3 µM came to 55% and the inhibition at 100 µM amounted to 79%.
As for `O=C(O)Cc1ccc(-c2cc(-c3ccccc3)c3ccccc3n2)s1` [Formula Ib-iv, 2-(5-(4-phenylquinolin-2-yl)thiophen-2-yl)acetic acid], the IC50 in test [1] was 0.145 µM. In test [2], this molecule showed an inhibition at 2 ppm of 0%, an inhibition at 10 ppm of 53% and an inhibition at 50 ppm of 97%. Further, in the test with Diplodia maydis, the inhibition at 2 ppm came out at 8% and the inhibition at 10 ppm amounted to 45%. In the test with Diplodia maydis (50 ppm), this molecule gave an inhibition at 50 ppm of 89%. In the test with Saccharomyces cerevisiae, the inhibition at 3.7 µM stood at 0%, the inhibition at 11.1 µM turned out to be 0%, the inhibition at 33.3 µM was found to be 15% and the inhibition at 100 µM worked out at 99%.
